Assay results: patent publication US20250108038A1 (priority 2023, published 2025)
Several values for one entry are separate records, joined by “and”; a condition that tells them apart may be missing. Identical values can stand only once.

System: Long Evans rats
Test: Behavioral satiety sequence (BSS)
Assay type: in vivo, Long Evans rat
Description: The Behavioural Satiety Sequence (BSS) is a technique used to evaluate physiological satiety. It is based on the expression of a sequence of behaviors including eating, grooming, locomotor activity, followed by resting, which are typically observed in rodents post-ingestion (Halford et al, 1998, Pharmacology Biochemistry and Behaviour. 61(2): 159-168). The BSS is a widely used model for determining the effects of novel pharmaceuticals on food intake and measures of satiety in rodents (Oliveira et al, 2011, Revista de Nutrição. 24(4) 619-628), and to discriminate the cause of reduced food intake following pharmacological manipulation. For example, treatments that may reduce food intake by non-specific mechanisms, such as immobility, malaise, and taste adulteration, will disrupt this sequence (Halford et al, 1998, Pharmacology Biochemistry and Behaviour. 61(2): 159-168).
Specifically, 12 male Long-Evans rats were food-deprived for 22 h with a 2 h feeding period each day. Rats were trained to consume daily food during the 2 h period over 25 days. The testing phase was initiated once the rats consistently consumed 16-18 g of food per day with ≤10% variance in amount of feed consumed. Feeding took place in designated individual boxes in a quiet room separate from the housing room. Continuous remote monitoring via video camera during feeding was used to assess the BSS. Food consumption was measured by weighing the total available food before and after the 2 h feeding window, correcting for spillage. Lorcaserin (1 mg/kg) was included as a reference control (Higgins et al, 2011, Neuropsychopharmacology. 37(5): 1177-1191). Subjects were tested using a repeated-measures, Latin square design with 2-3 days wash-out between treatment cycles.
On scheduled test days, animals were monitored remotely via video camera during the feeding access period. The occurrence of four mutually exclusive behaviors (eating/drinking, grooming, active, rest) were individually scored. Over the 2 h feeding period, behaviors were assessed every 30 seconds. Scores were compiled into 23 5 min timebins (timebin 24 was removed due to early removal of animals) and the frequency of each behavior within each timebin was calculated to determine a temporal frequency of each measure (Rodgers et al, 2010, Pharmacology Biochemistry and Behaviour. 97: 3-14). Percentage time was plotted for each behavioral sequence in each timebin to compare between treatment groups (Higgins et al, 2011, Neuropsychopharmacology. 37(5): 1177-1191).

[1] = Compound I-19 1 mg/kg, AVG of 12 animals
[2] = Compound I-19 1 mg/kg, raw score of individual animals LT-1 to LT-12
[3] = Compound I-19 3 mg/kg i.p., AVG of the group
[4] = Compound I-19 3 mg/kg i.p., raw score per animal

Clc1ccc(C2(OCC3OCCO3)c3ccccc3C3=NCCN32)cc1 (stereo not drawn) [Compound I-19]
BSS scoring R (resting), Time Bin 13 (60-65 TOTAL), AVG [1]: 0.13
BSS scoring R (resting), Time Bin 14 (65-70 TOTAL), AVG [1]: 0.10
BSS scoring R (resting), Time Bin 15 (70-75 TOTAL), AVG [1]: 0.13
BSS scoring R (resting), Time Bin 16 (75-80 TOTAL), AVG [1]: 0.18
BSS scoring R (resting), Time Bin 17 (80-85 TOTAL), AVG [1]: 0.14
BSS scoring R (resting), Time Bin 18 (85-90 TOTAL), AVG [1]: 0.30
BSS scoring A (active), Time Bin 13 (60-65 TOTAL) [2]: 2 and 1 (3×) and 0 (6×) and 3 (2×)
BSS scoring A (active), Time Bin 14 (65-70 TOTAL) [2]: 0 (4×) and 1 (4×) and 2 and 3 (2×) and 4
BSS scoring A (active), Time Bin 15 (70-75 TOTAL) [2]: 0 (4×) and 2 (4×) and 1 (2×) and 5 (2×)
BSS scoring A (active), Time Bin 16 (75-80 TOTAL) [2]: 1 (3×) and 2 and 0 (5×) and 4 (2×) and 6
BSS scoring A (active), Time Bin 17 (80-85 TOTAL) [2]: 9 and 0 (5×) and 4 and 2 and 3 and 1 (3×)
BSS scoring A (active), Time Bin 18 (85-90 TOTAL) [2]: 1 (3×) and 0 (5×) and 4 and 3 and 2 (2×)
BSS scoring E (eating/drinking), Time Bin 13 (60-65 TOTAL) [2]: 8 (2×) and 6 (3×) and 10 (3×) and 0 and 9 (2×) and 5
BSS scoring E (eating/drinking), Time Bin 14 (65-70 TOTAL) [2]: 10 (3×) and 8 (2×) and 9 and 1 and 7 (3×) and 5 and 6
BSS scoring E (eating/drinking), Time Bin 15 (70-75 TOTAL) [2]: 10 (2×) and 8 (3×) and 7 (2×) and 6 and 3 (2×) and 4 (2×)
BSS scoring E (eating/drinking), Time Bin 16 (75-80 TOTAL) [2]: 7 (3×) and 9 (2×) and 10 (2×) and 0 and 1 and 8 and 6 and 3
BSS scoring E (eating/drinking), Time Bin 17 (80-85 TOTAL) [2]: 1 (2×) and 10 (3×) and 6 and 8 (2×) and 0 and 9 (3×)
BSS scoring E (eating/drinking), Time Bin 18 (85-90 TOTAL) [2]: 9 (2×) and 6 and 7 (3×) and 1 (2×) and 0 (2×) and 8 and 10
BSS scoring G (grooming), Time Bin 13 (60-65 TOTAL) [2]: 0 (7×) and 2 (2×) and 1 (3×)
BSS scoring G (grooming), Time Bin 14 (65-70 TOTAL) [2]: 0 (8×) and 1 (4×)
BSS scoring G (grooming), Time Bin 15 (70-75 TOTAL) [2]: 0 (9×) and 1 and 3 and 2
BSS scoring G (grooming), Time Bin 16 (75-80 TOTAL) [2]: 2 and 1 and 0 (10×)
BSS scoring G (grooming), Time Bin 17 (80-85 TOTAL) [2]: 0 (11×) and 1
BSS scoring G (grooming), Time Bin 18 (85-90 TOTAL) [2]: 0 (8×) and 1 (4×)
BSS scoring R (resting), Time Bin 13 (60-65 TOTAL) [2]: 0 (7×) and 1 (3×) and 10 and 2
BSS scoring R (resting), Time Bin 14 (65-70 TOTAL) [2]: 0 (8×) and 8 and 2 and 1 (2×)
BSS scoring R (resting), Time Bin 15 (70-75 TOTAL) [2]: 0 (5×) and 2 (2×) and 1 (3×) and 4 and 5
BSS scoring R (resting), Time Bin 16 (75-80 TOTAL) [2]: 0 (6×) and 2 (2×) and 10 and 5 and 1 (2×)
BSS scoring R (resting), Time Bin 17 (80-85 TOTAL) [2]: 0 (9×) and 2 and 5 and 10
BSS scoring R (resting), Time Bin 18 (85-90 TOTAL) [2]: 0 (5×) and 1 (2×) and 2 and 7 (2×) and 8 and 10
BSS scoring A (active), Time Bin 1 (0-5 TOTAL), AVG [3]: 0.11
BSS scoring A (active), Time Bin 2 (5-10 TOTAL), AVG [3]: 0.02
BSS scoring A (active), Time Bin 3 (10-15 TOTAL), AVG [3]: 0.11
BSS scoring A (active), Time Bin 4 (15-20 TOTAL), AVG [3]: 0.13
BSS scoring A (active), Time Bin 5 (20-25 TOTAL), AVG [3]: 0.06
BSS scoring A (active), Time Bin 6 (25-30 TOTAL), AVG [3]: 0.11
BSS scoring E (eating/drinking), Time Bin 1 (0-5 TOTAL), AVG [3]: 0.86
BSS scoring E (eating/drinking), Time Bin 2 (5-10 TOTAL), AVG [3]: 0.93
BSS scoring E (eating/drinking), Time Bin 3 (10-15 TOTAL), AVG [3]: 0.87
BSS scoring E (eating/drinking), Time Bin 4 (15-20 TOTAL), AVG [3]: 0.83
BSS scoring E (eating/drinking), Time Bin 5 (20-25 TOTAL), AVG [3]: 0.88
BSS scoring E (eating/drinking), Time Bin 6 (25-30 TOTAL), AVG [3]: 0.84
BSS scoring G (grooming), Time Bin 1 (0-5 TOTAL), AVG [3]: 0.03
BSS scoring G (grooming), Time Bin 2 (5-10 TOTAL), AVG [3]: 0.03
BSS scoring G (grooming), Time Bin 3 (10-15 TOTAL), AVG [3]: 0.01
BSS scoring G (grooming), Time Bin 4 (15-20 TOTAL), AVG [3]: 0.02
BSS scoring G (grooming), Time Bin 5 (20-25 TOTAL), AVG [3]: 0.05
BSS scoring G (grooming), Time Bin 6 (25-30 TOTAL), AVG [3]: 0.01
BSS scoring R (resting), Time Bin 1 (0-5 TOTAL), AVG [3]: 0.00
BSS scoring R (resting), Time Bin 2 (5-10 TOTAL), AVG [3]: 0.02
BSS scoring R (resting), Time Bin 3 (10-15 TOTAL), AVG [3]: 0.02
BSS scoring R (resting), Time Bin 4 (15-20 TOTAL), AVG [3]: 0.02
BSS scoring R (resting), Time Bin 5 (20-25 TOTAL), AVG [3]: 0.02
BSS scoring R (resting), Time Bin 6 (25-30 TOTAL), AVG [3]: 0.04
BSS scoring A (active), Time Bin 1 (0-5 TOTAL) [4]: 2 and 1 (8×) and 3 and 0 (2×)
BSS scoring A (active), Time Bin 2 (5-10 TOTAL) [4]: 1 (2×) and 0 (10×)
BSS scoring A (active), Time Bin 3 (10-15 TOTAL) [4]: 2 (4×) and 1 (2×) and 0 (5×) and 3
BSS scoring A (active), Time Bin 4 (15-20 TOTAL) [4]: 0 (6×) and 3 (2×) and 2 and 6 and 1 (2×)
BSS scoring A (active), Time Bin 5 (20-25 TOTAL) [4]: 1 (7×) and 0 (5×)
BSS scoring A (active), Time Bin 6 (25-30 TOTAL) [4]: 2 (2×) and 1 (5×) and 0 (4×) and 4
BSS scoring E (eating/drinking), Time Bin 1 (0-5 TOTAL) [4]: 8 (4×) and 9 (6×) and 7 and 10
BSS scoring E (eating/drinking), Time Bin 2 (5-10 TOTAL) [4]: 8 (3×) and 10 (7×) and 9 (2×)
BSS scoring E (eating/drinking), Time Bin 3 (10-15 TOTAL) [4]: 8 (4×) and 9 (2×) and 10 (4×) and 7 (2×)
BSS scoring E (eating/drinking), Time Bin 4 (15-20 TOTAL) [4]: 9 (2×) and 7 (2×) and 10 (4×) and 8 (3×) and 4
BSS scoring E (eating/drinking), Time Bin 5 (20-25 TOTAL) [4]: 9 (4×) and 10 (3×) and 8 (4×) and 7
BSS scoring E (eating/drinking), Time Bin 6 (25-30 TOTAL) [4]: 8 (2×) and 9 (3×) and 10 (4×) and 5 and 7 and 6
BSS scoring G (grooming), Time Bin 1 (0-5 TOTAL) [4]: 0 (9×) and 1 (2×) and 2
BSS scoring G (grooming), Time Bin 2 (5-10 TOTAL) [4]: 1 (2×) and 0 (9×) and 2
BSS scoring G (grooming), Time Bin 3 (10-15 TOTAL) [4]: 0 (11×) and 1
BSS scoring G (grooming), Time Bin 4 (15-20 TOTAL) [4]: 0 (10×) and 1 (2×)
BSS scoring G (grooming), Time Bin 5 (20-25 TOTAL) [4]: 0 (6×) and 1 (6×)
BSS scoring G (grooming), Time Bin 6 (25-30 TOTAL) [4]: 0 (11×) and 1
BSS scoring R (resting), Time Bin 1 (0-5 TOTAL) [4]: 0
BSS scoring R (resting), Time Bin 2 (5-10 TOTAL) [4]: 0 (10×) and 1 (2×)
BSS scoring R (resting), Time Bin 3 (10-15 TOTAL) [4]: 0 (11×) and 2
